{"source": "paper PMC4482421", "about": "(ACS Nano, 2015)", "key": {"[1]": {"test_system": "human saphenous vein (HSV) rings", "experiment": "Inhibition of phenylephrine-induced HSV contraction", "conditions": "HSV rings ex vivo; 2 h treatment; 1 μM phenylephrine; n ≥ 3 donors"}, "[2]": {"test_system": "human coronary artery vascular smooth muscle cells (HCAVSMCs)", "experiment": "Cytotoxicity assay", "format": "cell-based", "conditions": "10–500 μM peptide, 2 h treatment, then 24 h in fresh medium"}}, "note": "Square brackets hold non-standard residues; d marks the D form. Peptide text beside a SMILES is read from it. pS = N[C@@H](COP(=O)(O)O)C(=O)O", "data": [{"smiles": "CC(C)C[C@H](NC(=O)CNC(=O)[C@@H]1CCCN1C(=O)[C@H](CC(C)C)NC(=O)[C@@H]1CCCN1C(=O)[C@H](C)NC(=O)[C@H](COP(=O)(O)O)NC(=O)[C@H](C)NC(=O)[C@H](CCCNC(=N)N)NC(=O)[C@H](CCCNC(=N)N)NC(=O)[C@H](CC(C)C)NC(=O)[C@H](Cc1c[nH]c2ccccc12)NC(=O)[C@H](C)NC(=O)[C@H](CCCNC(=N)N)NC(=O)[C@H](C)NC(=O)[C@H](CCC(N)=O)NC(=O)[C@H](CCCNC(=N)N)NC(=O)[C@H](C)NC(=O)[C@H](C)NC(=O)[C@H](C)NC(=O)[C@H](CCCNC(=N)N)NC(=O)[C@H](C)NC(=O)[C@@H](N)Cc1ccc(O)cc1)C(=O)N[C@@H](CCCCN)C(=O)O", "note": "[p-HSP20] (H-YARAAARQARAWLRRA[pS]APLPGLK-OH; N-terminus and C-terminus assumed)", "values": [{"measurement": "inhibition of PE-induced HSV contraction", "setting": "[1]", "result": "significantly inhibited the second PE-induced HSV contraction"}, {"measurement": "cytotoxicity / biocompatibility", "setting": "[2]", "result": "biocompatible with the exception of mild cytotoxicity detected at 500 μM"}]}]}
